12 molecules from US20170107229A1, “SUBSTITUTED TETRAHYDROPYRIDOTHIENOPYRIMIDINES” (BAYER PHARMA AKTIENGESELLSCHAFT, priority 2014, published 2017) can be followed below.

Molecules are shown by their SMILES.

T1 sequence (Q9BUB5 1-424 isoform Q9BUB5-2 T344D): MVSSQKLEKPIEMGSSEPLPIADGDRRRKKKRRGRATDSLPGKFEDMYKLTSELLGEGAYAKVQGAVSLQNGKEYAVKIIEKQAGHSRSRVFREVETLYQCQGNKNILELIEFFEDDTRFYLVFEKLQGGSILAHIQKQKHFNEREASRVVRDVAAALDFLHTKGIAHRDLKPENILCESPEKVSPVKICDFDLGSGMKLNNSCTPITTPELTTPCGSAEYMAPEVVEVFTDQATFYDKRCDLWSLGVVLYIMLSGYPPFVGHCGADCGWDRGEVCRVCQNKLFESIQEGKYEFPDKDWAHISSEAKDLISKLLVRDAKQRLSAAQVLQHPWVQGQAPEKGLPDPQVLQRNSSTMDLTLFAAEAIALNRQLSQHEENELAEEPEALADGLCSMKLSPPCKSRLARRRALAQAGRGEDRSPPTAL

The assay concerns the target T1, human full-length MKNK1 (Homo sapiens, UniProt Q9BUB5, T385D).
T1 construct: GST (N); purchased Carna Biosciences 02-145; host or cells: insect cells (baculovirus expression system)
Briefly: MKNK1 kinase high ATP assay (TR-FRET). In kind it is biochemical. To be noted: high ATP (2 mM final), 15 min preincubation with enzyme, GST-MKNK1 (T344D). Summed up: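 GST-tagged human full-length MKNK1 (T344D), insect-cell expressed, preincubated 15 min at 22 °C with compound, then reacted 30 min at 22 °C with 2 mM ATP and 0.06 μM biotinylated peptide (final) in HEPES pH 7.5. Phospho-peptide detected by TR-FRET (665/620 nm ratio) after EDTA stop; normalised to no-inhibitor and no-enzyme controls.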
On the technique in general: TR-FRET usually uses a lanthanide donor and a delayed reading to cut background.
One may read the IC50 as the midpoint of a concentration-inhibition curve. Read a low IC50 as greater potency in that assay. As for `COc1cc2[nH]ncc2cc1Nc1ncnc2sc3c(c12)CCN(C(=O)c1ccc(Cl)n1C)C3` [Example 76, (5-Chloro-1-methyl-1H-pyrrol-2-yl){4-[(6-methoxy-1H-indazol-5-yl)amino]-5,8-dihydropyrido[4′,3′:4,5]thieno[2,3-d]pyrimidin-7(6H)-yl}methanone], the IC50 was determined as 10 nM. As for `CN1CCC(C(=O)N2CCc3c(sc4ncnc(Nc5cc6cn[nH]c6cn5)c34)C2)CC1` [Example 77, (1-Methylpiperidin-4-yl)[4-(1H-pyrazolo[3,4-c]pyridin-5-ylamino)-5,8-dihydropyrido[4′,3′:4,5]thieno[2,3-d]pyrimidin-7(6H)-yl]methanone], the IC50 is 28 nM.

Regarding `CN(C)C(=O)N1CCc2c(sc3ncnc(Nc4cc5cn[nH]c5cc4Cl)c23)C1` [Example 27, 4-[(6-Chloro-1H-indazol-5-yl)amino]-N,N-dimethyl-5,8-dihydropyrido[4′,3′:4,5]thieno[2,3-d]pyrimidine-7(6H)-carboxamide], half-maximal inhibition (IC50) was put at 25 nM. The figure for `CS(=O)(=O)N1CCc2c(sc3ncnc(Nc4ccn5nccc5c4)c23)C1` [Example 36, 7-(Methylsulfonyl)-N-(pyrazolo[1,5-a]pyridin-5-yl)-5,6,7,8-tetrahydropyrido[4′,3′:4,5]thieno[2,3-d]pyrimidin-4-amine] is 157 nM; for `CSc1cc2[nH]ncc2cc1Nc1ncnc2sc3c(c12)CCN(C(=O)N1CCOCC1)C3` [Example 47, [4-{[6-(Methylsulfanyl)-1H-indazol-5-yl]amino}-5,8-dihydropyrido[4′,3′:4,5]thieno[2,3-d]pyrimidin-7(6H)-yl](morpholin-4-yl)methanone] it is 61 nM; for `COc1cc2[nH]ncc2cc1Nc1ncnc2sc3c(c12)CCN(C(=O)C1CCN(C)CC1)C3` [Example 68, {4-[(6-Methoxy-1H-indazol-5-yl)amino]-5,8-dihydropyrido[4′,3′:4,5]thieno[2,3-d]pyrimidin-7(6H)-yl}(1-methylpiperidin-4-yl)methanone] it is 9 nM. The figure for `COc1cc2[nH]ncc2cc1Nc1ncnc2sc3c(c12)CCN(C(=O)OC(C)(C)C)C3` [Example 4, tert-Butyl 4-[(6-methoxy-1H-indazol-5-yl)amino]-5,8-dihydropyrido[4′,3′:4,5]thieno[2,3-d]pyrimidine-7(6H)-carboxylate] is 6 nM; for `COc1cc2[nH]ncc2cc1Nc1ncnc2sc3c(c12)CCN(C(=O)NCCC(F)(F)F)C3` [Example 100, 4-[(6-Methoxy-1H-indazol-5-yl)amino]-N-(3,3,3-trifluoropropyl)-5,8-dihydropyrido[4′,3′:4,5]thieno[2,3-d]pyrimidine-7(6H)-carboxamide] it is 1 nM; for `C[C@@H]1CN(C(=O)N2CCc3c(sc4ncnc(Nc5cnc6[nH]ncc6c5)c34)C2)C[C@H](C)O1` [Example 35, [(2R,6S)-2,6-Dimethylmorpholin-4-yl][4-(1H-pyrazolo[3,4-b]pyridin-5-ylamino)-5,8-dihydropyrido[4′,3′:4,5]thieno[2,3-d]pyrimidin-7(6H)-yl]methanone] it is 27 nM.

Molecule `COc1cc2[nH]ncc2cc1Nc1ncnc2sc3c(c12)CCN(CCCn1cccc1)C3` [Example 84, N-(6-Methoxy-1H-indazol-5-yl)-7-[3-(1H-pyrrol-1-yl)propyl]-5,6,7,8-tetrahydropyrido[4′,3′:4,5]thieno[2,3-d]pyrimidin-4-amine] gave a half-inhibitory concentration (IC50) of 8 nM. The figure for `COc1cc2[nH]ncc2cc1Nc1ncnc2sc3c(c12)CCN(C(=O)N1CCOC[C@@H]1C)C3` [Example 97, {4-[(6-Methoxy-1H-indazol-5-yl)amino]-5,8-dihydropyrido[4′,3′:4,5]thieno[2,3-d]pyrimidin-7(6H)-yl}[(3S)-3-methylmorpholin-4-yl]methanone] is 3 nM; for `CSc1cc2[nH]ncc2cc1Nc1ncnc2sc3c(c12)CCN(CC(F)(F)F)C3` [Example 11, N-[6-(Methylsulfanyl)-1H-indazol-5-yl]-7-(2,2,2-trifluoroethyl)-5,6,7,8-tetrahydropyrido[4′,3′:4,5]thieno[2,3-d]pyrimidin-4-amine] it is 15 nM.
